# Source: US10172829B2 (priority 2014, dated 2019)
# Biological target: TcdB protease (Clostridioides difficile, UniProt P18177)
# Experiment: biochemical
# Parameters: species or system Clostridium difficile
# Conditions: not given
# Sequence of TcdB protease (P18177 544-797 limits assumed): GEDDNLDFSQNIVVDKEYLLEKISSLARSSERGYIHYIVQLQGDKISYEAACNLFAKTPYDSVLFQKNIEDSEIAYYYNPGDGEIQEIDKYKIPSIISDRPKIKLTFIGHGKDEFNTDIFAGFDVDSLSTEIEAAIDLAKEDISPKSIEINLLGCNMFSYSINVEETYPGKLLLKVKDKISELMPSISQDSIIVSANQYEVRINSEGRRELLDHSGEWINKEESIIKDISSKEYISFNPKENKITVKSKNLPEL
row,SMILES,IC50 [µM]
1,"COc1ccc(Cl)cc1NC(=O)c1ccccc1[Se][Se]c1ccccc1C(=O)Nc1cc(Cl)ccc1OC [MG-7, 2,2′-diselane-1,2-diylbis[N-(5-chloro-2-methoxyphenyl)benzamide]]",9.6
2,"O=c1c2ccccc2[se]n1-c1ccc(Cl)cc1F [MG-34, 2-(4-chloro-2-fluorophenyl)-1,2-benzoselenazol-3-one]",6.5
3,"O=C(Nc1ccc(F)c(Cl)c1)c1ccccc1[Se][Se]c1ccccc1C(=O)Nc1ccc(F)c(Cl)c1 [MG-43, 2,2′-diselane-1,2-diylbis[N-(3-chloro-4-fluorophenyl)benzamide]]",5.09
4,"O=C(Nc1ccc(F)cc1Cl)c1ccccc1[Se][Se]c1ccccc1C(=O)Nc1ccc(F)cc1Cl [MG-40, 2,2′-diselane-1,2-diylbis[N-(2-chloro-4-fluorophenyl)benzamide]]",7.38
5,"Cc1ccc(NC(=O)c2ccccc2[Se][Se]c2ccccc2C(=O)Nc2ccc(C)cc2Cl)c(Cl)c1 [MG-12, 2,2′-diselane-1,2-diylbis[N-(2-chloro-4-methylphenyl)benzamide]]",3.98
6,"COc1ccc(C)cc1-n1[se]c2ccccc2c1=O [MG-2, 2-(2-methoxy-5-methylphenyl)-1,2-benzoselenazol-3-one]",5.58
7,"Cc1ccc(Cl)c(NC(=O)c2ccccc2[Se][Se]c2ccccc2C(=O)Nc2cc(C)ccc2Cl)c1 [MG-10, 2,2′-diselane-1,2 - diylbis[N-(2-chloro-5-methylphenyl)benzamide]]",7.33
8,"COc1ccc(C(C)(C)C)cc1-n1[se]c2ccccc2c1=O [MG-8, 2-(2-methoxy-5-t-butylphenyl)-1,2-benzoselenazol-3-one]",8.5
9,"O=C(Nc1ccccc1F)c1ccccc1[Se][Se]c1ccccc1C(=O)Nc1ccccc1F [MG-31, 2,2′-diselane-1,2-diylbis[N-(2-fluorophenyl)benzamide]]",4.92
10,"Cc1c(Cl)cccc1NC(=O)c1ccccc1[Se][Se]c1ccccc1C(=O)Nc1cccc(Cl)c1C [MG-61, 2,2′-diselane-1,2-diylbis[N-(3-chloro-2-methylphenyl)benzamide]]",5.97
11,"Cc1ccc(-n2[se]c3ccccc3c2=O)cc1 [MG-13, 2-(4-methylphenyl)-1,2-benzoselenazol-3-one]",4.9
12,"O=C(Nc1ccc(F)cc1F)c1ccccc1[Se][Se]c1ccccc1C(=O)Nc1ccc(F)cc1F [MG-33, 2,2′-diselane-1,2-diylbis[N-(2,4-difluorophenyl)benzamide]]",2.7
13,"COc1cccc(NC(=O)c2ccccc2[Se][Se]c2ccccc2C(=O)Nc2cccc(OC)c2)c1 [MG-56, 2,2′-diselane-1,2-diylbis[N-(3-methoxyphenyl)benzamide]]",3.95
14,"O=c1c2ccccc2[se]n1-c1ccccc1O [MG-174, 2-(2-hydroxyphenyl)-1,2-benzoselenazol-3-one]",4.86
15,"COc1ccc(-n2[se]c3ccccc3c2=O)c(C)c1 [MG-1, 2-(4-methoxy-2-methylphenyl)-1,2-benzoselenazol-3-one]",6.47
16,"O=c1c2ccccc2[se]n1-c1ccccc1 [Ebselen, 2-phenyl-1,2-benzoselenazol-3-one]",5.14
17,"O=c1c2ccccc2[se]n1-c1ncccc1O [MG-48, 2-(3-hydroxypyridin-2-yl)-1,2-benzoselenazol-3-one]",7.44

# Test system: human foreskin fibroblast (HFF cells)
# Experiment: cells
# Type: cell-based
# Conditions: read-out: EC50 of blocking cell rounding
row,SMILES,EC50 [µM]
1,"O=c1c2ccccc2[se]n1-c1ccccc1 [Ebselen, 2-phenyl-1,2-benzoselenazol-3-one]",0.021

# Same assay, conditions: read-out: EC50 of protective effect against cell rounding
row,SMILES,EC50 [µM]
1,"O=c1c2ccccc2[se]n1-c1ccccc1 [Ebselen, 2-phenyl-1,2-benzoselenazol-3-one]",0.217

# Biological target: T1, TcdB CPD (Clostridioides difficile, UniProt P18177)
# T1 construct: The compounds were screened against the recombinantly expressed cysteine protease domain; made in house
# T1 sequence (P18177 544-799 limits assumed): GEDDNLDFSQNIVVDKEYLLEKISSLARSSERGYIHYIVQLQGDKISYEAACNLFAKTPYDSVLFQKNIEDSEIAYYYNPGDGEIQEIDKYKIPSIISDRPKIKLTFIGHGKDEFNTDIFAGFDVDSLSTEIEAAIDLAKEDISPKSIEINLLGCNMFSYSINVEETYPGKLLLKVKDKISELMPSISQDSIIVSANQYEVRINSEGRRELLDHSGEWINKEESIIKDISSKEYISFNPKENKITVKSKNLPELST
# Experiment: biochemical
# Parameters: species or system Clostridium difficile
# Conditions: not given
row,SMILES,IC50 [µM]
1,Cc1cc(C)c2c(=O)n(CC(=O)NCCCSC3CCCCC3)sc2n1 [STF 102625],1.32
2,CCCCNC(=O)Cn1sc2nc(C)cc(C)c2c1=O [STF 102686],1.98
3,COC(=O)N1CCN(C(=O)Cn2sc3nc(C)cc(C)c3c2=O)CC1 [STF 102635],4.84
4,Cc1cc(C)c2c(=O)n(CC(=O)NC(C)CCc3ccccc3)sc2n1 (stereo not drawn) [STF 102645],3.99
5,Cc1cc(C)c2c(=O)n(CC(=O)NCCc3ccc(Cl)cc3)sc2n1 [STF 102655],3.14
6,Cc1cc(C)c2c(=O)n(CC(=O)NCc3ccc4c(c3)OCO4)sc2n1 [STF 102654],3.9
7,COCCNC(=O)Cn1sc2nc(C)cc(C)c2c1=O [STF 102766],2.38
8,CCOCCCNC(=O)Cn1sc2nc(C)cc(C)c2c1=O [STF 102644],2.81

# Biological target: TcdB (Clostridioides difficile, UniProt P18177)
# Sequence (P18177 2-2366 limits assumed): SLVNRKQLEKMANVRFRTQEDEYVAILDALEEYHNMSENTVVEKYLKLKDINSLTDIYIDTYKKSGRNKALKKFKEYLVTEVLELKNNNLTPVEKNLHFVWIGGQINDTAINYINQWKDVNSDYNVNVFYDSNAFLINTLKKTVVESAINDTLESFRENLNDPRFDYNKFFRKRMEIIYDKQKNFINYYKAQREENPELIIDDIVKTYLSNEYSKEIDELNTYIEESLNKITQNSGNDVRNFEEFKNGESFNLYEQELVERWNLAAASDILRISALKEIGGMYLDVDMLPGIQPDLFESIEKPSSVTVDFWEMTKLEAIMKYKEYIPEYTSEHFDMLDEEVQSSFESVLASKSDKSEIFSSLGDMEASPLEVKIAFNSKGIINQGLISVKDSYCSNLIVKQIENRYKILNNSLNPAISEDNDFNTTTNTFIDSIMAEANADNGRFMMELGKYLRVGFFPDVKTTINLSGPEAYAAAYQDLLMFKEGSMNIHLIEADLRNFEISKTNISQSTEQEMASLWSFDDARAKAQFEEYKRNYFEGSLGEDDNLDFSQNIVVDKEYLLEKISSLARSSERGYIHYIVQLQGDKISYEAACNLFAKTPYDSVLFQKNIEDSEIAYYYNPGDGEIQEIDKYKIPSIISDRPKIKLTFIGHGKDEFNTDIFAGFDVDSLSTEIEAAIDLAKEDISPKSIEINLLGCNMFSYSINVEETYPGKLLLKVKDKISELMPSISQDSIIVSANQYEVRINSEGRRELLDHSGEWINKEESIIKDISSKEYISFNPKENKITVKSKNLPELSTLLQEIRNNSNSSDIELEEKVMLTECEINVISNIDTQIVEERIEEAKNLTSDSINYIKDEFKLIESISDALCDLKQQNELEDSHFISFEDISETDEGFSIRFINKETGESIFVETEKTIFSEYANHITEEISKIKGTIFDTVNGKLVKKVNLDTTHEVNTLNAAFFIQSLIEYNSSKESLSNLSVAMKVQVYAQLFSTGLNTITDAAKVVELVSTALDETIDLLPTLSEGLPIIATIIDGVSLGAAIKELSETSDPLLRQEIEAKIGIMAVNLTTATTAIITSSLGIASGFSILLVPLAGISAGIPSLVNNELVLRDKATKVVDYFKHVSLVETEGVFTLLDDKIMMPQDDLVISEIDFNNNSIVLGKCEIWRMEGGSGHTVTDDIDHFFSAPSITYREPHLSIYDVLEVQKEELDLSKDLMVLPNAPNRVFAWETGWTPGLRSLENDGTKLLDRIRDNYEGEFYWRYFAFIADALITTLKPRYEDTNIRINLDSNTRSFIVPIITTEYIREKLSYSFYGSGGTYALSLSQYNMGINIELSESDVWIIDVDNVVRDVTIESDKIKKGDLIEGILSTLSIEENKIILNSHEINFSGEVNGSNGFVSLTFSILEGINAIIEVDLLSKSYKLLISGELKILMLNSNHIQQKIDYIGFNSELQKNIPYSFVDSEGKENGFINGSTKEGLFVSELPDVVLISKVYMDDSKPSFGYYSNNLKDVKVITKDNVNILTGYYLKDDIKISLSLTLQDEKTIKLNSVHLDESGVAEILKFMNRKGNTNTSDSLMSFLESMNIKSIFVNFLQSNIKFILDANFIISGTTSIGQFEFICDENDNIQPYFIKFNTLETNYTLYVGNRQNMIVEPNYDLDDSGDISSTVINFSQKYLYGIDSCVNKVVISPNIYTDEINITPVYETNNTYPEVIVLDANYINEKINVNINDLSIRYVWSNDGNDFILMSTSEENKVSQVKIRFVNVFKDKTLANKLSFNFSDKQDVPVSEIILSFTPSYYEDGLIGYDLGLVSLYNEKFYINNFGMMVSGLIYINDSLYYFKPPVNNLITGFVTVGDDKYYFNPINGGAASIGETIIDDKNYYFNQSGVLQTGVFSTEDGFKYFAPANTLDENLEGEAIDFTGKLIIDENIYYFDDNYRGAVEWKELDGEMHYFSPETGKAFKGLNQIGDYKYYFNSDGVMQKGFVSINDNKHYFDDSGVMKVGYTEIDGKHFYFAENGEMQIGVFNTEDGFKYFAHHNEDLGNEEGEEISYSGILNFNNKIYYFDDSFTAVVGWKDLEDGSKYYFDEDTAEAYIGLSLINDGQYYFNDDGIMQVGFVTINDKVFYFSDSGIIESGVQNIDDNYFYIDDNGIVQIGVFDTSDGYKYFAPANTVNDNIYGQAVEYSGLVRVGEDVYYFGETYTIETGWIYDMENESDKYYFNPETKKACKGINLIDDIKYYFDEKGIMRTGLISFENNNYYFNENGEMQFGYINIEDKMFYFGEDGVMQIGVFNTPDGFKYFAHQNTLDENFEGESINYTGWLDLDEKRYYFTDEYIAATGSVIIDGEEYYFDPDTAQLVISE
# Experiment: Mouse TcdB toxigenic model
# Type: in vivo
# Conditions: mice i.p. 25 ng TcdB pretreated with 100 nM ebselen; 72 hours
row,SMILES,changes in vital signs (clinical signs of toxin action)
1,"O=c1c2ccccc2[se]n1-c1ccccc1 [Ebselen, 2-phenyl-1,2-benzoselenazol-3-one]",no significant changes in vital signs

# Same assay, conditions: mice i.p. 25 ng TcdB pretreated with 100 nM ebselen; monitored three days
row,SMILES,survival rate [%]
1,"O=c1c2ccccc2[se]n1-c1ccccc1 [Ebselen, 2-phenyl-1,2-benzoselenazol-3-one]",100

# Biological target: full length TcdB (Clostridioides difficile, UniProt P18177)
# Experiment: not given
# Conditions: read-out: IC50 of inhibition of labeling of the CPD, IP6 activated, AWP-19 labeling
row,SMILES,IC50 [µM]
1,"O=c1c2ccccc2[se]n1-c1ccccc1 [Ebselen, 2-phenyl-1,2-benzoselenazol-3-one]",0.0172
